Assay results from publication PMC10404626 (The Journal of Biological Chemistry, 2023).
Read-outs that look alike come from different tables or passages of the source.

Legend:
[1] = target: T1, Btbc1 (bovine heart mitochondrial cyt bc1, Complex III) (Bos taurus, UniProt P00157+P13272); details: cited from earlier work; for incubation time to reach full inhibitory capacity: classic compounds, typical
[2] = target: T2, Rsbc1 (cyt bc1 from Rhodobacter sphaeroides) (Cereibacter sphaeroides, UniProt Q02761+Q02762); details: read-out: half-maximum inhibition (IC50); previous work; cited from earlier work
T2 sequence (Q02761 1-445): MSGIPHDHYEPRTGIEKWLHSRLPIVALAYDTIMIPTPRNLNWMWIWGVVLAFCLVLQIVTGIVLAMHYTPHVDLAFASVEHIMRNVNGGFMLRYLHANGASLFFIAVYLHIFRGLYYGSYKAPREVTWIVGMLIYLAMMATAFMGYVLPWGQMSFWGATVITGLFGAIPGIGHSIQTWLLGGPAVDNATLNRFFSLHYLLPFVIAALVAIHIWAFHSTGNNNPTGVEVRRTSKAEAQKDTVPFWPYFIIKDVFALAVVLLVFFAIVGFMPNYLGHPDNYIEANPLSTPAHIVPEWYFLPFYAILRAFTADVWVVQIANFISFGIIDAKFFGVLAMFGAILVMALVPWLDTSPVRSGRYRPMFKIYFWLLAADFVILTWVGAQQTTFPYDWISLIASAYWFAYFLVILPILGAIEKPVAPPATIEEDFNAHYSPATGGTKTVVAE
T2 sequence (Q02762 1-187): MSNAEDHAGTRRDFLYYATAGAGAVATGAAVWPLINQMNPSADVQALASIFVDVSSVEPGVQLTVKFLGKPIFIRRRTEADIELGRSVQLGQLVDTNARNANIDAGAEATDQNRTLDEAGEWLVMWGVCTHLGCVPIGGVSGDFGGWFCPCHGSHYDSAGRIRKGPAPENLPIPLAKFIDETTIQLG
T2 sequence (Q02760 23-285 partner): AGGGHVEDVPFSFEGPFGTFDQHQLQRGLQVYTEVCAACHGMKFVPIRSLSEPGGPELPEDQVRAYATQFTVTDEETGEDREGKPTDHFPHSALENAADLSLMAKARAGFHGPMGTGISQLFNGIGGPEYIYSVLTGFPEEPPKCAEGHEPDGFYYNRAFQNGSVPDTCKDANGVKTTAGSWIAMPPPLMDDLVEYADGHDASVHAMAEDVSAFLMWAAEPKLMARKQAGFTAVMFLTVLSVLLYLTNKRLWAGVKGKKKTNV

[3] = tested on: yeast cyt b L275F mutation; details: cited from earlier work
[4] = target: T1, Btbc1 (bovine heart mitochondrial cyt bc1, Complex III); assay: Inhibition of bovine heart mitochondrial cyt bc1 activity; type: biochemical; details: IC50, incubation time 5 minutes; cyt c reduction
[5] = tested on: wild-type P. falciparum-infected erythrocytes; details: cited from earlier work
[6] = tested on: P. falciparum cyt b mutant parasites (F264L, A122T, Y268S); details: cyt b Y268S mutant parasites of the 106/1 line; cited from earlier work

Compound: C[C@@]1(c2ccc(Oc3ccccc3)cc2)OC(=O)N(Nc2ccccc2)C1=O (racemic) [famoxadone]
- IC50 ([1]; read-out: half-maximum inhibition (IC50), previous work): 0.418 µM
- IC50 [2]: 0.0014 µM
- reduction in the IC50 value [3]: 20 fold

Compound: CCCCCCCCCCCC1=C(O)C(=O)c2scnc2C1=O [UHDBT, 5-n-undecyl-6-hydroxy-4,7-dioxobenzothiazole]
- incubation time to reach full inhibitory capacity [1]: less than 5 min

Compound: O=C1C(O)=C([C@H]2CC[C@H](c3ccc(Cl)cc3)CC2)C(=O)c2ccccc21 [atovaquone]
- IC50 [4]: 2.63 µM
- IC50 ([5]; P. falciparum wild-type lines): ~0.013 µM
- EC50 ([5]; wild-type parasites of the 106/1 line): 0.0011 µM
- EC50 [6]: > 6.76 µM

Compound: CO/C(=C/C(N)=O)[C@H](C)[C@H](/C=C/c1csc(-c2csc([C@@H](C)/C=C/C=C/C(C)C)n2)n1)OC [myxothiazol]
- incubation time to reach full inhibitory capacity [1]: less than 5 min

Compound: C/C=C(C)/C=C/C=C/[C@H](OC)[C@@H](C)[C@@H](OC)[C@@H](C)CCc1oc2c(O)c(OC)cc(OC)c2c(=O)c1C [stigmatellin]
- IC50 [4]: 0.001 µM
- incubation time to reach full inhibitory capacity [1]: less than 5 min
